Test results from ChEMBL document CHEMBL1201862, “PubChem BioAssay data set” (2004).
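Cultured in 96-well plates, cells were exposed to test compound for 48 hours across five concentrations. Here, GI50 denotes the concentration required for 50% inhibition of growth.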 The source made the active and inactive calls. No stated cut-off is given here; in the data, active = GI50 up to about 1.1 µM and inactive = higher.

Key:
Assay in all cases: NCI-60 cell line screen, 48 h
786-0 = tested on: 786-0
ACHN = tested on: ACHN
CCRF-CEM = tested on: CCRF-CEM
HL-60 = tested on: HL-60
IGROV-1 = tested on: IGROV-1
KM12 = tested on: KM12
MDA-MB-435 = tested on: MDA-MB-435
MDA-N = tested on: MDA-N
NCI-H226 = tested on: NCI-H226
NCI-H460 = tested on: NCI-H460
OVCAR-3 = tested on: OVCAR-3
OVCAR-5 = tested on: OVCAR-5
PC-3 = tested on: PC-3
SF-539 = tested on: SF-539
SK-MEL-28 = tested on: SK-MEL-28
SK-MEL-5 = tested on: SK-MEL-5
SNB-19 = tested on: SNB-19
UACC-62 = tested on: UACC-62
HCC 2998 = tested on: HCC 2998
SNB-75 = tested on: SNB-75

Measured: GI50

O=C(CSc1ncnc2[nH]cnc12)c1ccccc1
inactive: 786-0 > 100 µM | ACHN > 100 µM | CCRF-CEM > 65.8 µM | HL-60 > 100 µM | IGROV-1 > 100 µM | KM12 > 41.1 µM | MDA-MB-435 > 100 µM | MDA-N 86.3 µM | NCI-H226 > 100 µM | NCI-H460 > 100 µM | OVCAR-3 > 100 µM | OVCAR-5 > 57.1 µM | PC-3 > 100 µM | SF-539 > 100 µM | SK-MEL-28 > 100 µM | SK-MEL-5 86.3 µM | SNB-19 > 100 µM | UACC-62 > 100 µM

COC(=O)C(=O)C(C(=O)C(=O)Nc1cc(C)ccc1C)c1nc2ccccc2nc1O (centres undefined)
inactive: 786-0 > 100 µM | ACHN > 100 µM | CCRF-CEM 36.1 µM | HCC 2998 > 100 µM | IGROV-1 67 µM | KM12 > 100 µM | MDA-MB-435 > 100 µM | MDA-N > 100 µM | NCI-H226 > 100 µM | NCI-H460 > 100 µM | OVCAR-3 > 100 µM | OVCAR-5 > 100 µM | PC-3 > 100 µM | SF-539 > 100 µM | SK-MEL-28 > 100 µM | SK-MEL-5 > 100 µM | SNB-19 > 100 µM | SNB-75 > 100 µM | UACC-62 87.7 µM

CC(C)C1N(C)c2ccc(Cl)cc2[C@H]2c3ccccc3CCN12 (some centres undefined)
inactive: 786-0 > 100 µM | ACHN 82.2 µM | CCRF-CEM 97.9 µM | HL-60 27.7 µM | IGROV-1 23.4 µM | KM12 50.9 µM | MDA-MB-435 23 µM | MDA-N 26.1 µM | NCI-H226 14.3 µM | NCI-H460 94.8 µM | OVCAR-3 27.2 µM | OVCAR-5 38.3 µM | PC-3 62.4 µM | SF-539 > 100 µM | SK-MEL-28 54.8 µM | SNB-19 > 100 µM | SNB-75 61.8 µM | UACC-62 25.4 µM

O=C1C(=c2cc3c(c4ccccc24)=NC24CCCCC2C(c2ccccc2)C=C(c2ccccc2)N34)C(=O)c2ccccc21 (centres undefined)
inactive: 786-0 48.6 µM | ACHN 54.3 µM | CCRF-CEM 15.6 µM | HL-60 27.7 µM | IGROV-1 3.08 µM | KM12 30.4 µM | MDA-MB-435 22 µM | MDA-N 36.9 µM | NCI-H226 44.3 µM | OVCAR-3 22 µM | OVCAR-5 > 100 µM | PC-3 25.8 µM | SF-539 41.1 µM | SK-MEL-28 47.2 µM | SK-MEL-5 26.4 µM | SNB-19 45.2 µM | SNB-75 54 µM

CC1(C)C(CCO)CC1n1ccc(=O)[nH]c1=O (centres undefined)
inactive: 786-0 > 100 µM | ACHN > 100 µM | CCRF-CEM > 100 µM | HCC 2998 > 100 µM | KM12 > 100 µM | MDA-MB-435 > 100 µM | MDA-N > 100 µM | NCI-H226 > 100 µM | OVCAR-3 > 100 µM | OVCAR-5 > 100 µM | PC-3 > 100 µM | SF-539 > 100 µM | SK-MEL-28 > 100 µM | SK-MEL-5 > 100 µM | SNB-19 > 100 µM | SNB-75 > 100 µM | UACC-62 > 100 µM

O=c1c2cc(S(=O)(=O)O)ccc2nc(COc2ccc(Oc3ccc(Cl)cc3Cl)cc2)n1-c1ccc(Cl)cc1Oc1c(Cl)cccc1Cl
inactive: 786-0 24.7 µM | ACHN 25.1 µM | CCRF-CEM 30.9 µM | HL-60 47.1 µM | IGROV-1 33 µM | KM12 35 µM | MDA-MB-435 25.6 µM | MDA-N 30.1 µM | NCI-H226 20.6 µM | NCI-H460 19.5 µM | OVCAR-3 23.7 µM | OVCAR-5 23.6 µM | PC-3 36.4 µM | SF-539 16.5 µM | SK-MEL-5 17 µM | SNB-19 40.9 µM | UACC-62 20.1 µM

CCn1c(SCc2nnc(Nc3ccccc3)s2)nc2ccccc2c1=O
inactive: 786-0 2.02 µM | ACHN 2.85 µM | CCRF-CEM 47.6 µM | HCC 2998 6.68 µM | IGROV-1 3.62 µM | KM12 2.38 µM | MDA-MB-435 10.3 µM | MDA-N 8.77 µM | NCI-H226 2.19 µM | NCI-H460 1.45 µM | OVCAR-3 5.19 µM | OVCAR-5 6.14 µM | PC-3 8.79 µM | SF-539 3.27 µM | SK-MEL-28 16.4 µM | SK-MEL-5 8.15 µM | SNB-19 3.5 µM | SNB-75 3.85 µM | UACC-62 3.3 µM

CC(=O)NC(CC(C)C)C(=O)NC(CC(C)C)C(=O)NC(C=O)CCCNC(=N)N (centres undefined)
inactive: 786-0 > 100 µM | ACHN > 100 µM | CCRF-CEM > 100 µM | HCC 2998 > 100 µM | IGROV-1 > 100 µM | KM12 > 100 µM | MDA-MB-435 > 100 µM | MDA-N > 100 µM | NCI-H226 42.3 µM | NCI-H460 > 100 µM | OVCAR-3 > 100 µM | OVCAR-5 > 100 µM | PC-3 > 100 µM | SF-539 > 100 µM | SK-MEL-28 > 100 µM | SK-MEL-5 > 100 µM | SNB-19 > 100 µM | SNB-75 > 100 µM | UACC-62 > 100 µM

COc1ccc2c(c1)CCC/C2=N\NS(=O)(=O)c1c(C)cc(C)cc1C
inactive: 786-0 19.1 µM | ACHN 27.7 µM | CCRF-CEM 27.1 µM | HCC 2998 41.5 µM | IGROV-1 19 µM | KM12 16 µM | MDA-MB-435 27.7 µM | MDA-N 28.6 µM | NCI-H226 22.2 µM | NCI-H460 31 µM | OVCAR-3 32.4 µM | OVCAR-5 39.6 µM | PC-3 28.6 µM | SF-539 19.2 µM | SK-MEL-28 35.1 µM | SK-MEL-5 17.3 µM | SNB-19 41.6 µM | SNB-75 13.8 µM | UACC-62 18.7 µM

CC(N)(CC(O)(C(F)(F)Cl)C(F)(F)Cl)C(=O)O (centres undefined)
inactive: 786-0 > 10 µM | ACHN > 10 µM | CCRF-CEM > 10 µM | HCC 2998 > 10 µM | IGROV-1 > 10 µM | KM12 > 10 µM | MDA-MB-435 > 10 µM | MDA-N > 10 µM | NCI-H226 > 10 µM | NCI-H460 > 10 µM | OVCAR-3 > 10 µM | OVCAR-5 > 10 µM | PC-3 > 10 µM | SF-539 > 10 µM | SK-MEL-28 > 10 µM | SK-MEL-5 > 10 µM | SNB-19 > 10 µM | SNB-75 > 10 µM | UACC-62 > 10 µM

N#Cc1c(-c2ccc(Cl)cc2)c2c([nH]c1=O)-c1ccccc1SC2
inactive: 786-0 39.8 µM | CCRF-CEM 26.3 µM | HL-60 21 µM | IGROV-1 56.9 µM | KM12 63.7 µM | MDA-MB-435 41 µM | MDA-N 77.6 µM | NCI-H226 38.6 µM | NCI-H460 46.3 µM | OVCAR-3 26.2 µM | OVCAR-5 > 100 µM | PC-3 42.8 µM | SF-539 25.6 µM | SK-MEL-28 > 100 µM | SK-MEL-5 > 100 µM | SNB-19 91.8 µM | SNB-75 27.5 µM | UACC-62 32.7 µM

Nc1ccc2c(c1)C(=O)N1CCC[C@H]1C(=O)N2
inactive: 786-0 > 100 µM | ACHN > 100 µM | CCRF-CEM 1.38 µM | HCC 2998 > 100 µM | IGROV-1 > 100 µM | KM12 > 100 µM | MDA-MB-435 > 100 µM | MDA-N > 100 µM | NCI-H226 > 100 µM | NCI-H460 > 100 µM | OVCAR-3 > 100 µM | OVCAR-5 > 100 µM | PC-3 > 100 µM | SF-539 > 100 µM | SK-MEL-28 > 100 µM | SK-MEL-5 > 100 µM | SNB-19 > 100 µM | SNB-75 > 100 µM | UACC-62 > 100 µM

COC(=O)c1cc(NC(=O)c2cc(NC(=O)Cc3c[nH]c4ccccc34)cn2C)cn1C
inactive: 786-0 56.9 µM | ACHN 35.7 µM | CCRF-CEM 32.7 µM | HL-60 34.6 µM | KM12 24.3 µM | MDA-MB-435 30.3 µM | MDA-N 37.2 µM | NCI-H226 30.8 µM | NCI-H460 30.5 µM | OVCAR-3 41.9 µM | OVCAR-5 39.3 µM | PC-3 19.1 µM | SF-539 56.4 µM | SK-MEL-28 35.9 µM | SK-MEL-5 16 µM | SNB-19 21.8 µM | SNB-75 20.5 µM | UACC-62 20.2 µM

Cc1cn2c(/C=C3/C(=O)Nc4cccc(Cl)c43)c(Cl)nc2s1
inactive: 786-0 18.5 µM | ACHN 20.6 µM | CCRF-CEM 13.5 µM | HCC 2998 6.34 µM | HL-60 53.7 µM | IGROV-1 > 100 µM | KM12 > 100 µM | MDA-MB-435 > 100 µM | MDA-N > 100 µM | OVCAR-3 61.9 µM | OVCAR-5 > 100 µM | PC-3 > 100 µM | SK-MEL-28 1.12 µM | SNB-19 40.4 µM | SNB-75 14.2 µM | UACC-62 19.6 µM

N#C/N=C(/N)c1sc2nc3c(c(-c4ccc(Br)cc4)c2c1N)CCCC3
inactive: 786-0 15.7 µM | ACHN 20.6 µM | CCRF-CEM 9.84 µM | HCC 2998 22.1 µM | KM12 21.3 µM | MDA-MB-435 2.73 µM | MDA-N 3.42 µM | NCI-H226 15.9 µM | NCI-H460 21.1 µM | OVCAR-5 34.3 µM | PC-3 11.6 µM | SF-539 22.1 µM | SK-MEL-28 32.9 µM | SK-MEL-5 4.37 µM | SNB-19 33.4 µM | UACC-62 13.9 µM
